Results taken from US11192916B2, “Pentacyclic triterpene compound and preparation method therefor, and pharmaceutical composition and use thereof” (SHANGHAI INSTITUTE OF MATERIA MEDICA, CHINESE ACADEMY OF …, priority 2017, dated 2021).

Assays:
Format in all cases: cell-based
[1] = test system: HEK293 cells; assay: CCK-8 cytotoxicity test; settings: for CCK-8 Assay (30 μM): cytotoxicity on HEK293 cells at 30 μM; for CCK-8 Assay (100 μM): cytotoxicity on HEK293 cells at 100 μM
Description: The cytotoxicity of the compounds was evaluated by using CCK-8 experiment. CCK-8 is an indicator of redox reaction. In the presence of the electron carrier 1-Methoxy PMS, dehydrogenase in living cells is used to catalyze the tetrazolium salt WST-8 to form formazan dye. The production amount of formazan dye has a linear relationship with the number of living cells. The light absorption value measured at 450 nm using a microplate reader can indirectly reflect the number of living cells. Therefore, this method is used for the activity detection of some bioactive factors, large-scale anti-tumor drug screening, cell proliferation test, cytotoxicity test, and drug sensitivity test. This experiment is used to evaluate the cytotoxicity of the compounds. 2 μg of the chimeric plasmid LBD(hFXR)-pbind and 2 μg of Luciferase reporter plasmid were co-transfected into 2×10^6 HEK293 cells and inoculated in transparent 96-well plates. After 24 h, the culture medium was discarded and the test compound (diluted in serum-free culture medium, containing 1% DMSO) was added and incubated for 1 h, then FXR agonist GW4064 (300 nM) was added to agitate for 4 h. 10 μl detection reagent for CCK-8 was added to each well. After 2 hours, absorbance values at 450 nm and 650 nm (as reference wavelength) were detected with Flextation instrument.

[2] = target: T1, FXR (Homo sapiens, UniProt Q96RI1); assay: FXR antagonist test, luciferase reporter gene experiment against agonist GW4064; settings: antagonistic activity; HEK293 cells co-transfected with LBD(hFXR)-pbind and luciferase reporter; GW4064 300 nM
T1 sequence (Q96RI1 262-486 limits assumed): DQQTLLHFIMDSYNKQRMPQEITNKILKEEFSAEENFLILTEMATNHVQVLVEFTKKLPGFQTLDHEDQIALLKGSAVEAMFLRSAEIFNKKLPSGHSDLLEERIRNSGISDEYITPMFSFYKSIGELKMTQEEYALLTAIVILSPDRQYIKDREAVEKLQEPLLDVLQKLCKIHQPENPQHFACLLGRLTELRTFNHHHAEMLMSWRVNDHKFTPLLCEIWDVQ
Source text: The antagonistic activity of the compound against FXR was detected by the reporter gene experiment. FXR is a nuclear receptor activated by bile acids and has regulatory effects on glucose metabolism and lipid metabolism in the body. After FXR is activated, it can initiate the expression of a series of genes and respond to external stimuli. The Luciferase reporter gene system is a reporting system for detecting firefly luciferase activity. Luciferase can catalyze the oxidation of Luciferin, a fluorescent substrate, and cause emition of biological fluorescence at the same time. The amount of luciferase expression can be determined by detecting the fluorescence intensity. In this experiment, the test compound may target FXR, and GW4064 is a known FXR agonist, which initiates the expression of a series of genes after binding to the FXR ligand-binding domain. Therefore, the reporter gene experiment was used. Two plasmids, LBD (hFXR)-pbind and PGL4.31-Luc were co-transfected into HEK293 cells to express the FXR ligand-binding domain in the cells. Two test compounds were separately added and a blank control group was set, and then an agonist was added. If the compound has affinity for FXR, it will compete with the agonist for binding to the FXR ligand-binding domain and affect the expression of luciferase in pGL4.31-Luc. The Envision2101 multi-well microplate reader was used to detect the chemiluminescence count value, and the effect of the test compound on FXR activity was judged based on the fluorescence intensity. 2 μg of the chimeric plasmid LBD(hFXR)-pbind and 2 μg of Luciferase reporter plasmid were co-transfected into 2×10^6 HEK293 cells and inoculated in white opaque 96-well plates. After 24 h, the culture medium was discarded, and the test compound (diluted with serum-free culture medium, containing 1% DMSO) was added and incubated for 1 h. Then FXR agonist GW4064 (300 nM) was added to stimulate for 6 h, and finally luciferase substrate was added and shaken to lyse. Luminescence was measured on the Envision 2104 microplate reader.

[3] = target: T2, TGR5 (Homo sapiens, UniProt Q8TDU6); assay: TGR5 agonist test, HTRF cAMP detection in HEK293 cells transiently transfected with TGR5; settings: Table 2, TGR5 agonistic activity, HEK293 cells expressing TGR5, up to 100 μM, read-out: FXR (IC50/μM)
T2 construct: expressed in transfected cells; host or cells: HEK293
T2 sequence (Q8TDU6 1-330): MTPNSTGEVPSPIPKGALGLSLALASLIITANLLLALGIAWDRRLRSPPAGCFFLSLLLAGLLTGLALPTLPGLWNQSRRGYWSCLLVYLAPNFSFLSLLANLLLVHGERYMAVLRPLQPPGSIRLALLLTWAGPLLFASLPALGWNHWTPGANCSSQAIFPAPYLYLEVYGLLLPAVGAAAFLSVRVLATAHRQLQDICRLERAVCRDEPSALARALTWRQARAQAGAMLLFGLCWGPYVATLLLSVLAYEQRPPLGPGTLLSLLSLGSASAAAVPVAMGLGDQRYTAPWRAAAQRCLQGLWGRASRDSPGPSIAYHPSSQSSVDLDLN
Source text: HEK293 cells transiently transfected with TGR5 were stimulated with compounds, and then homogeneous time-resolved fluorescence (HTRF) was used to detect whether these compounds could agitate TGR5.
TGR5 is a bile acid membrane receptor and a member of the GPCR family. It regulates the metabolism of bile acids, lipids, and sugars. TGR5 is coupled to the Gs protein, and after activation, it further activates adenylate cyclase to produce a second messenger cAMP. HTRF is a method for detecting the content of cAMP and combines two techniques of fluorescence resonance energy transfer (FRET) and time-resolved fluorescence (TRF). […] FRET induces the acceptor to generate fluorescence, and Eu has a long fluorescence lifetime. TRF can distinguish the fluorescent signal by the acceptor from the fluorescent background. The fluorescent donor is bound to a cAMP-specific antibody, and cAMP is simultaneously labeled with a fluorescent acceptor. The donor and acceptor approach to each other through the antigen-antibody specific recognition reaction to generate FRET, and the cAMP produced by the cell competes with the labeled cAMP for antibody binding sites, resulting in the decrease of fluorescence intensity.
4.1. The test compound was prepared with 1× PBS into a solution having 2 times of the final concentration. The final concentration was 100 μM, 10 μM, 1 μM, 100 nM, 10 nM, 1 nM, 0.1 nM, DMSO (each well contains 1% DMSO).
4.2.2. The cell density was determined. At the same time, IBMX (final concentration of […]) was added into the serum-free culture medium, and the number of cells was 2000/5 μl/well.
4.2.3. 5 μl of the test compound and 5 μl of the cell suspension containing IBMX were added and mixed. A 384-well plate was sealed with a foil paper. The mixtures were protected from light and reacted at room temperature for […].
4.3.1 1 μl cAMP-d2 was diluted to 20 μl by using cAMP&cGMP conjugates & lysis buffer. 4.3.2 1 μl anti-cAMP-Cryptate was diluted to 20 μl by using cAMP&cGMP conjugates&lysis buffer.
4.3.3 After 30 minutes, 5 μl (1.3.1) and 5 μl (1.3.2) were added and a 384-well plate was sealed with a foil paper. The mixtures were protected from light and reacted at room temperature.
4.4. After 60 minutes, the values were detected by Envision 2101 microplate reader (PerkinElmer).

Q: Which results are given for `CC(C)[C@@H]1CC[C@]2(C(=O)NCC(=O)O)CC[C@]3(C)C(CCC4[C@@]5(C)CC[C@@H](O)C(C)(C)C5CC[C@]43C)C12` (stereo partly drawn) [Compound C1]?
A: CCK-8 Assay (30 μM) [1]: no; CCK-8 Assay (100 μM) [1]: no; IC50 [2]: 13.9 µM; EC50 [3]: > 100 µM

Q: Which results are given for `CCCC(=O)O[C@H]1CC[C@@]2(C)C(CC[C@]3(C)C2CCC2C4[C@H](C(C)C)CC[C@]4(C(=O)NCC(=O)O)CC[C@]23C)C1(C)C` (stereo partly drawn) [Compound C12]?
A: CCK-8 Assay (30 μM) [1]: no; CCK-8 Assay (100 μM) [1]: no; IC50 [2]: 8.27 µM; EC50 [3]: > 100 µM

Q: `CC(C)[C@@H]1CC[C@]2(C(=O)NCC(=O)O)CC[C@]3(C)C(CCC4[C@@]5(C)CC[C@@H](OC(=O)c6cccnc6)C(C)(C)C5CC[C@]43C)C12` (stereo partly drawn) [Compound C16] was tested. Which “CCK-8 Assay (30 μM)” value [1] did it give?
A: no

Q: What about the “CCK-8 Assay (100 μM)” value [1] of the same compound?
A: no

Q: And the IC50 [2]?
A: 5.67 µM

Q: And the EC50 [3]?
A: > 100 µM

Q: What does the source list for `CC(=O)O[C@@H]1CC[C@@]2(C)C(CC[C@]3(C)C2CCC2C4[C@H](C(C)C)CC[C@]4(C(=O)NCC(=O)O)CC[C@]23C)C1(C)C` (stereo partly drawn) [Compound C2]?
A: CCK-8 Assay (30 μM) [1]: no; CCK-8 Assay (100 μM) [1]: no; IC50 [2]: 6.31 µM; EC50 [3]: > 100 µM

Q: With `CCC(=O)O[C@@H]1CC[C@@]2(C)C(CC[C@]3(C)C2CCC2C4[C@H](C(C)C)CC[C@]4(C(=O)NCC(=O)O)CC[C@]23C)C1(C)C` (stereo partly drawn) [Compound C3] as the compound, how does the “CCK-8 Assay (30 μM)” value [1] read?
A: no

Q: And the “CCK-8 Assay (100 μM)” value [1]?
A: no

Q: What about the IC50 [2] of the same compound?
A: 3.89 µM

Q: And the EC50 [3]?
A: > 100 µM

Q: How did the “CCK-8 Assay (30 μM)” value [1] turn out when `CCCC(=O)O[C@@H]1CC[C@@]2(C)C(CC[C@]3(C)C2CCC2C4[C@H](C(C)C)CC[C@]4(C(=O)NCC(=O)O)CC[C@]23C)C1(C)C` (stereo partly drawn) [Compound C4] was run?
A: no

Q: And the “CCK-8 Assay (100 μM)” value [1]?
A: no

Q: What about the IC50 [2] of the same compound?
A: 2.05 µM

Q: What about the EC50 [3] of the same compound?
A: > 100 µM
